In patent publication US12202840B2, “Compounds for the treatment or alleviation of disorders associated with Tau aggregates” (AC Immune SA, priority 2018, dated 2025):

Tests used:
Format in all cases: in vivo
[1] = test system: rTg4510 mice; assay: Cortex size (cortical atrophy), study of Example 2; conditions: once daily by gavage, 7 and 20 mg/kg, statistical significance at the higher dose, FIG. 6A
Protocol: (§1) Double transgenic rTg4510 mice are an aggressive Tauopathy model expressing the full-length human Tau carrying the P301L mutation (Tau4R0N-P301L) under the control of the tetracycline-inducible CaMKII promoter (Ramsden et al., 2005). Wild-type animals and single transgenic mice expressing only the tetracycline-controlled transactivator (tTA) were used as genotype controls. Mice were treated and tested. The study comprised 4 treatment groups (n=15 female mice/group) with the following group distribution (see Table 6). Compound of the invention or vehicle control were administered once daily by gavage for 12 weeks starting at the age of 5.5 weeks. The Morris Water Maze (MWM) behavioral test was performed after 12.5 weeks of treatment over 5 consecutive days. During MWM testing daily dosing was continued. Behavioral testing (MWM) and biochemical quantification of sarkosyl-insoluble Tau were performed on all mice (n=15 mice/group). Measurement of cortical atrophy and histology for Iba1 were performed on 10 mice/group.
After behavioral testing, mice were deeply anesthetized by standard injectable anesthesia and transcardially perfused with cold PBS. Brains were then removed and hemi-sagitally hemisected. […] A systematic random set of sections from seven sagittal levels per animal was used to quantify the cortex size.

[2] = test system: rTg4510 mice; assay: Morris Water Maze behavioral test, study of Example 2; conditions: once daily by gavage, 7 and 20 mg/kg, statistical significance at 20 mg/kg, FIG. 4
Protocol: as §1, with “Measurement of cortical atrophy and histology for Iba1 were performed on 10 mice/group.” left out
The MWM was performed in a circular tank, measuring 48″ in diameter. […] Trials were video recorded and analyzed by a computer program (WaterMaze; Actimetrics, Wilmette, Ill.). […] Percent crossing in each quadrant (target, left and right adjacent, and opposite) was calculated for probe trials. Data were analyzed by 2-way ANOVA followed by post-hoc comparisons and shown statistics refers to differences compared to vehicle treated rTg4510 mice.

[3] = molecular target: T1, sarkosyl-insoluble Tau (Homo sapiens, UniProt P10636, P618L); assay: Sarkosyl-insoluble Tau quantification in cortex, study of Example 2; conditions: rTg4510 mice cortex, once daily by gavage, 7 and 20 mg/kg; statistical significance at 20 mg/kg; FIG. 5
T1 construct: expressing the full-length human Tau carrying the P301L mutation (Tau4R0N-P301L); from tissue; host or cells: brain (cortex) of double transgenic rTg4510 mice
T1 sequence (P10636 1-383 isoform P10636-6 P243L): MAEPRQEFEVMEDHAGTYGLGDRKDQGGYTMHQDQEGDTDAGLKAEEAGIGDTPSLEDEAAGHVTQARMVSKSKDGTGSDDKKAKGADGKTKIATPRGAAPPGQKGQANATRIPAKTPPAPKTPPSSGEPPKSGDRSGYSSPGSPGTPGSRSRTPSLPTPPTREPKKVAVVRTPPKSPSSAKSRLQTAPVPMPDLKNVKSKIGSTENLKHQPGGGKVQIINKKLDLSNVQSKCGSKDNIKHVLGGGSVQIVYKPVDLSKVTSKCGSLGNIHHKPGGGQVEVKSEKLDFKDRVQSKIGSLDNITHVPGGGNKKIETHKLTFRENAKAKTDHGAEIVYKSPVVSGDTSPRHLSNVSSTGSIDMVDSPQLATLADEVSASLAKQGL
Protocol: as §1
After behavioral testing, mice were deeply anesthetized by standard injectable anesthesia and transcardially perfused with cold PBS. Brains were then removed and hemi-sagitally hemisected. […] The membranes were finally scanned using LiCor scanner (Odyssey Infrared Imager) and quantified using the LiCor software Image Studio Lite Version 5.2. […]

CN(C)[C@@H]1CCc2c(c3ccc(Nc4ccc5sc(N6CCOCC6)nc5c4)nc3n2C)C1 [Example 2]
cortex size [1]: dose-dependent increase | percentage of platform crossings in the target compared to the opposite quadrant (MWM probe trial) [2]: dose-dependent increase | sarkosyl insoluble Tau [3]: dose-dependent decrease
